CCOc1ccc(C2NC(=O)NC=C2C(=O)c2cc(OC)c(OC)c(OC)c2)cc1 (stereo not given)
Settings | solubility (mole fraction)
in PEG-400, 298.15 K | 0.00513
in PEG-400, 303.15 K | 0.00678
in PEG-400, 308.15 K | 0.0083
in PEG-400, 313.15 K | 0.0104
in PEG-400, 318.15 K | 0.0122

in water
Settings | solubility (mole fraction)
298.15 K | 8.04e-06
303.15 K | 1.11e-05
308.15 K | 1.52e-05
313.15 K | 2.04e-05
318.15 K | 2.57e-05

— BigSolDB 2.1
